From patent publication US10947252B2, “Inhibitors of KEAP1-Nrf2 protein-protein interaction” (Janssen Pharmaceutica NV, priority 2018, dated 2021) come the findings set out here.

The target of test [1] is Kelch domain of human KEAP1 (321-624 aa) (Homo sapiens (Human), UniProt Q14145). In words: KEAP1 KELCH ThermoFluor binding assay.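 Also: Ligand-induced melting temperature shift of E. coli-expressed KEAP1 Kelch protein, Kd estimated from concentration-response curves of ΔTm.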 The settings on record: KEAP Kelch […], 1,8-ANS, pH 7.0, average of results obtained, read-out: Tf Kd. In general terms: Differential scanning fluorimetry follows unfolding on heating by fluorescence.
Chain of Kelch domain of human KEAP1 (321-624 aa) (Q14145 321-624): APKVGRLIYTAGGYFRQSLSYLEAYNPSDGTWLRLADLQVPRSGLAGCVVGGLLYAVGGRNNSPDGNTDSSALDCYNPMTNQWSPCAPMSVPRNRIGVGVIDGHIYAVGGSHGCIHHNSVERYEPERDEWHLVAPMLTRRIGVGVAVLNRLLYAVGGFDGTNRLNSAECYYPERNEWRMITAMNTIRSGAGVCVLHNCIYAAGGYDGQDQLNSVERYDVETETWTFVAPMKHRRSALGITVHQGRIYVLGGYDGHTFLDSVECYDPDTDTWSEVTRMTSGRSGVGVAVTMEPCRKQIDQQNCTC
For test [2], the system named is Glo-Response ARE-luc2P HEK293 cell line. In words: ARE luciferase reporter cell-based assay.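 Also: luciferase signal tracks Nrf2 activation of the ARE once compounds disrupt KEAP1-Nrf2 binding, read with One-Glo reagent, DMSO serving as low control.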 Particulars: Homo sapiens, HEK293, 24 h, average of results obtained. Background: A reporter such as luciferase makes a cellular process visible.

For `CC[C@@H]1CN(Cc2cc(C(CC(=O)O)c3ccn4c(C(F)F)nnc4c3C)ccc2C)S(=O)(=O)c2cccnc2O1` (mixture of isomers) [Example 463, 3-(3-(Difluoromethyl)-8-methyl-[1,2,4]triazolo[4,3-a]pyridin-7-yl)-3-(3-(((R)-4-ethyl-1,1-dioxido-3,4-dihydro-2H-pyrido[2,3-b][1,4,5]oxathiazepin-2-yl)methyl)-4-methylphenyl)propanoic Acid], the Kd in test [1] was under 0.001 µM. The 50% effective concentration (EC50) in test [2] is 0.0276 µM.
Consider `Cc1ccc(C(CC(=O)O)c2ccn3c(C(F)F)nnc3c2C)cc1CN1C[C@@H]2CCCN2c2ncc(C#N)cc2S1(=O)=O` (mixture of isomers) [Example 542, 3-(3-(((S)-3-Cyano-5,5-dioxido-7a,8,9,10-tetrahydropyrido[2,3-f]pyrrolo[2,1-d][1,2,5]thiadiazepin-6(7H)-yl)methyl)-4-methylphenyl)-3-(3-(difluoromethyl)-8-methyl-[1,2,4]triazolo[4,3-a]pyridin-7-yl)propanoic Acid], for which, in test [1], the dissociation constant Kd is under 0.001 µM. The same molecule showed an EC50 in test [2] of 0.0597 µM.
Consider `Cc1ccc(C(c2ccn3c(C(F)(F)F)nnc3c2C)C(C)(C)C(=O)O)cc1CN1CC2(CCOCC2)Oc2nc(OCCN3CCOCC3)ccc2S1(=O)=O` (racemic) [Example 46], for which the Kd in test [1] is under 0.001 µM. This molecule also had an EC50 in test [2] of 0.0719 µM.
In the same order, the values of `Cc1ccc(C(c2ccn3c(C(F)F)nnc3c2C)C(C)(C)C(=O)O)cc1CN1CC2(CCOCC2)Oc2ncccc2S1(=O)=O` (racemic) [Example 52, (R/S)-3-(3-(Difluoromethyl)-8-methyl-[1,2,4]triazolo[4,3-a]pyridin-7-yl)-3-(3-((1′,1′-dioxido-2,3,5,6-tetrahydrospiro[pyran-4,4′-pyrido[2,3-b][1,4,5]oxathiazepin]-2′(3′H)-yl)methyl)-4-methylphenyl)-2,2-dimethylpropanoic Acid] are under 0.001 µM and 0.0082 µM.
`Cc1cnc(C(c2ccn3c(C(F)(F)F)nnc3c2C)C(C)(C)C(=O)O)cc1CN1CC2(CCOCC2)Oc2ncccc2S1(=O)=O` (racemic) [Example 55, (R/S)-3-(4-((1′,1′-Dioxido-2,3,5,6-tetrahydrospiro[pyran-4,4′-pyrido[2,3-b][1,4,5]oxathiazepin]-2′(3′H)-yl)methyl)-5-methylpyridin-2-yl)-2,2-dimethyl-3-(8-methyl-3-(trifluoromethyl)-[1,2,4]triazolo[4,3-a]pyridin-7-yl)propanoic Acid]: in test [1], the Kd is under 0.001 µM. This molecule yielded an EC50 in test [2] of 0.124 µM.
In the case of `CCn1nnc2c(C)c(C(c3cnc(C)c(CN4CC5(CCOCC5)Oc5ncccc5S4(=O)=O)c3)C(C)(C)C(=O)O)ccc21` (racemic) [Example 58, (R/S)-3-(5-((1′,1′-Dioxido-2,3,5,6-tetrahydrospiro[pyran-4,4′-pyrido[2,3-b][1,4,5]oxathiazepin]-2′(3′H)-yl)methyl)-6-methylpyridin-3-yl)-3-(1-ethyl-4-methyl-1H-benzo[d][1,2,3]triazol-5-yl)-2,2-dimethylpropanoic Acid], in test [1], the Kd came out at 0.0024 µM. In addition, the concentration giving a half-maximal response (EC50) in test [2] was 0.226 µM.
`CCn1nnc2c(C)c(C(c3cnc(C)c(CN4CC5(CCOCC5)Oc5ncc(C)cc5S4(=O)=O)c3)C(C)(C)C(=O)O)ccc21` (racemic) [Example 61, (R/S)-3-(1-Ethyl-4-methyl-1H-benzo[d][1,2,3]triazol-5-yl)-2,2-dimethyl-3-(6-methyl-5-((8′-methyl-1′,1′-dioxido-2,3,5,6-tetrahydrospiro[pyran-4,4′-pyrido[2,3-b][1,4,5]oxathiazepin]-2′(3′H)-yl)methyl)pyridin-3-yl)propanoic Acid]: in test [1], the Kd was under 0.001 µM. In test [2], this molecule yielded an EC50 of 0.0417 µM.
On to `Cc1ccc(C(CC(=O)O)c2ccn3c(C)nnc3c2)cc1CN1CC(C)(C)Oc2ncccc2S1(=O)=O` (racemic) [Example 160, (R/S)-3-(3-((4,4-Dimethyl-1,1-dioxido-3,4-dihydro-2H-pyrido[2,3-b][1,4,5]oxathiazepin-2-yl)methyl)-4-methylphenyl)-3-(3-methyl-[1,2,4]triazolo[4,3-a]pyridin-7-yl)propanoic Acid], for which the dissociation constant (Kd) in test [1] is under 0.001 µM. In test [2], this molecule gave a 50% effective concentration (EC50) of 19 µM.
With `Cc1ccc(C(CC(=O)O)c2ccn3c(C)nnc3c2)cc1CN1CC(C)(C)Oc2ccccc2S1(=O)=O` (racemic) [Example 161, (R/S)-3-(3-((4,4-Dimethyl-1,1-dioxido-3,4-dihydro-2H-benzo[b][1,4,5]oxathiazepin-2-yl)methyl)-4-methylphenyl)-3-(3-methyl-[1,2,4]triazolo[4,3-a]pyridin-7-yl)propanoic Acid], in test [1], the Kd turned out to be 0.0028 µM. Moreover, the EC50 in test [2] stood at 15.9 µM.
Consider `Cc1ccc(C(CC(=O)O)c2ccn3c(C(F)(F)F)nnc3c2C)cc1CN1C[C@@H]2CN(C)CCN2c2ncccc2S1(=O)=O` (mixture of isomers) [Example 177, (R/S)-3-(4-Methyl-3-(((*S)-9-methyl-5,5-dioxido-7,7a,8,9,10,11-hexahydro-6H-pyrazino[2,1-d]pyrido[2,3-f][1,2,5]thiadiazepin-6-yl)methyl)phenyl)-3-(8-methyl-3-(trifluoromethyl)-[1,2,4]triazolo[4,3-a]pyridin-7-yl)propanoic Acid], for which the equilibrium dissociation constant (Kd) in test [1] was determined as 0.049 µM. Also, the 50% effective concentration (EC50) in test [2] was 1.39 µM.
For the molecule `Cc1ccc(C(CC(=O)O)c2ccn3c(C(F)(F)F)nnc3c2C)cc1CN1C[C@H]2CN(C)CCN2c2ncccc2S1(=O)=O` (mixture of isomers) [Example 180, (R/S)-3-(4-Methyl-3-(((*R)-9-methyl-5,5-dioxido-7,7a,8,9,10,11-hexahydro-6H-pyrazino[2,1-d]pyrido[2,3-f][1,2,5]thiadiazepin-6-yl)methyl)phenyl)-3-(8-methyl-3-(trifluoromethyl)-[1,2,4]triazolo[4,3-a]pyridin-7-yl)propanoic Acid], the Kd in test [1] is 0.19 µM. For the same molecule, in test [2], it took 2.88 µM to reach a half-maximal effect (EC50).
On to `Cc1ccc(C(CC(=O)O)c2ccn3c(C(F)(F)F)nnc3c2C)cc1CN1CC2(CC2)N(C)c2ncccc2S1(=O)=O` (racemic) [Example 183, (R/S)-3-(4-Methyl-3-((5′-methyl-1′,1′-dioxido-5′H-spiro[cyclopropane-1,4′-pyrido[2,3-f][1,2,5]thiadiazepin]-2′(3′H)-yl)methyl)phenyl)-3-(8-methyl-3-(trifluoromethyl)-[1,2,4]triazolo[4,3-a]pyridin-7-yl)propanoic Acid], for which, in test [1], the Kd came to 0.0016 µM. In addition, the EC50 in test [2] came out at 0.37 µM.
Regarding `Cc1ccc(C(CC(=O)O)c2ccc3c(nnn3C3CC3)c2C)cc1CN1CC2(COC2)Oc2ccccc2S1(=O)=O` (racemic) [Example 214, (R/S)-3-(1-Cyclopropyl-4-methyl-1H-benzo[d][1,2,3]triazol-5-yl)-3-(3-((1,1-dioxidospiro[benzo[b][1,4,5]oxathiazepine-4,3′-oxetan]-2(3H)-yl)methyl)-4-methylphenyl)propanoic Acid], in test [1], the Kd is under 0.001 µM. The same molecule had an EC50 in test [2] of 0.0051 µM.
In the same order, the values of `Cc1ccc(C(CC(=O)O)c2ccc3c(nnn3C3CC3)c2C)cc1CN1C[C@@H]2CCCCN2c2ccccc2S1(=O)=O` (mixture of isomers) [Example 217, (R/S)-3-(1-Cyclopropyl-4-methyl-1H-benzo[d][1,2,3]triazol-5-yl)-3-(3-(((*S)-5,5-dioxido-7,7a,8,9,10,11-hexahydro-6H-benzo[f]pyrido[2,1-d][1,2,5]thiadiazepin-6-yl)methyl)-4-methylphenyl)propanoic Acid] are under 0.001 µM and 0.011 µM.
Consider `Cc1ccc(C(CC(=O)O)c2ccc3c(nnn3C3CC3)c2C)cc1CN1C[C@]2(C)CCCN2c2ncccc2S1(=O)=O` (mixture of isomers) [Example 218, (R/S)-3-(1-Cyclopropyl-4-methyl-1H-benzo[d][1,2,3]triazol-5-yl)-3-(4-methyl-3-(((*S)-7a-methyl-5,5-dioxido-7a,8,9,10-tetrahydropyrido[2,3-f]pyrrolo[2,1-d][1,2,5]thiadiazepin-6(7H)-yl)methyl)phenyl)propanoic Acid], for which, in test [1], the dissociation constant (Kd) was under 0.001 µM. In test [2], this molecule registered a concentration for a half-maximal effect (EC50) of 0.0066 µM.
As to `Cc1ccc(C(CC(=O)O)c2ccc3c(nnn3C3CC3)c2C)cc1CN1C[C@@]2(C)CCCN2c2ncccc2S1(=O)=O` (mixture of isomers) [Example 221, (R/S)-3-(1-Cyclopropyl-4-methyl-1H-benzo[d][1,2,3]triazol-5-yl)-3-(4-methyl-3-(((*R)-7a-methyl-5,5-dioxido-7a,8,9,10-tetrahydropyrido[2,3-f]pyrrolo[2,1-d][1,2,5]thiadiazepin-6(7H)-yl)methyl)phenyl)propanoic Acid], in test [1], the equilibrium dissociation constant (Kd) is 0.019 µM. In test [2], this molecule registered a half-maximal effective concentration (EC50) of 0.58 µM.
As to `Cc1cnc2c(c1)S(=O)(=O)N(Cc1cc(C(c3ccc4c(nnn4C4CC4)c3C)C(C)(C)C(=O)O)cnc1C)CC1(CCOCC1)O2` (racemic) [Example 227, (R/S)-3-(1-Cyclopropyl-4-methyl-1H-benzo[d][1,2,3]triazol-5-yl)-2,2-dimethyl-3-(6-methyl-5-((8′-methyl-1′,1′-dioxido-2,3,5,6-tetrahydrospiro[pyran-4,4′-pyrido[2,3-b][1,4,5]oxathiazepin]-2′(3′H)-yl)methyl)pyridin-3-yl)propanoic Acid], the Kd in test [1] was under 0.001 µM. This molecule also displayed a concentration giving a half-maximal response (EC50) in test [2] of 0.022 µM.
For the molecule `Cc1ccc(C(CC(=O)O)c2ccc3c(nnn3CC3CC3)c2C)cc1CN1C[C@@H]2CCCCN2c2ncccc2S1(=O)=O` (mixture of isomers) [Example 231, (R/S)-3-(1-(Cyclopropylmethyl)-4-methyl-1H-benzo[d][1,2,3]triazol-5-yl)-3-(3-(((*S)-5,5-dioxido-7,7a,8,9,10,11-hexahydro-6H-dipyrido[2,1-d:2′,3′-f][1,2,5]thiadiazepin-6-yl)methyl)-4-methylphenyl)propanoic Acid], in test [1], the Kd was under 0.001 µM. The molecule further came in with a concentration giving a half-maximal response (EC50) in test [2] of 0.007 µM.

A word on the Kd: it is the free concentration of one partner at which half of the binding sites on the other are occupied at equilibrium, for simple one-to-one binding. What is called EC50 is the concentration that produces a half-maximal response. A low value points to a more potent agent.
